Each block holds one compound with its values, some of them ahead of it. Activity calls are given as the source filed them. No cut-off for these calls is given here.
Assays:
[1] = Lipophilicity, log P of the compound; type: physicochemical; settings: octanol/water
Mus musculus [2] = assay: Antipsychotic activity in albino lyka mouse assessed as reduction in apomorphine-induced mesh climbing response at 5 mg/kg, ip administered 10 mins prior to apomorphine challenge measured after 10 to 30 mins; type: functional, organism-based; set-up: dose 5 mg/kg
Mus musculus [3] = assay: Antipsychotic activity in albino lyka mouse assessed as reversal of apomorphine-induced stereotype response at 5 mg/kg, ip administered 10 mins prior to apomorphine challenge measured after 10 to 30 mins; type: functional, organism-based; set-up: dose 5 mg/kg
Mus musculus [4] = assay: Antipsychotic activity in albino lyka mouse assessed as reversal of apomorphine-induced stereotype response at 80 mg/kg, ip administered 10 mins prior to apomorphine challenge measured after 10 to 30 mins; type: functional, organism-based; set-up: dose 80 mg/kg
Mus musculus [5] = assay: Antipsychotic activity in albino lyka mouse assessed as reduction in apomorphine-induced mesh climbing response at 80 mg/kg, ip administered 10 mins prior to apomorphine challenge measured after 10 to 30 mins; type: functional, organism-based; set-up: dose 80 mg/kg
Mus musculus [6] = assay: Antipsychotic activity in albino lyka mouse assessed as reduction in apomorphine-induced mesh climbing response at 120 mg/kg, ip administered 10 mins prior to apomorphine challenge measured after 10 to 30 mins; type: functional, organism-based; set-up: dose 120 mg/kg
Mus musculus [7] = assay: Antipsychotic activity in albino lyka mouse assessed as reversal of apomorphine-induced stereotype response at 120 mg/kg, ip administered 10 mins prior to apomorphine challenge measured after 10 to 30 mins; type: functional, organism-based; set-up: dose 120 mg/kg
Mus musculus [8] = assay: Antipsychotic activity in albino lyka mouse assessed as reversal of apomorphine-induced stereotype response at 25 mg/kg, ip administered 10 mins prior to apomorphine challenge measured after 10 to 30 mins; type: functional, organism-based; set-up: dose 25 mg/kg
Mus musculus [9] = assay: Antipsychotic activity in albino lyka mouse assessed as reduction in apomorphine-induced mesh climbing response at 25 mg/kg, ip administered 10 mins prior to apomorphine challenge measured after 10 to 30 mins; type: functional, organism-based; set-up: dose 25 mg/kg
Mus musculus [10] = assay: Antipsychotic activity in albino lyka mouse assessed as reversal of apomorphine-induced stereotype response at 1 mg/kg, ip administered 10 mins prior to apomorphine challenge measured after 10 to 30 mins; type: functional, organism-based; set-up: dose 1 mg/kg
Mus musculus [11] = assay: Antipsychotic activity in albino lyka mouse assessed as reduction in apomorphine-induced mesh climbing response at 1 mg/kg, ip administered 10 mins prior to apomorphine challenge measured after 10 to 30 mins; type: functional, organism-based; set-up: dose 1 mg/kg
Mus musculus [12] = assay: Antipsychotic activity in albino lyka mouse assessed as reduction in apomorphine-induced mesh climbing response at 20 mg/kg, ip administered 10 mins prior to apomorphine challenge measured after 10 to 30 mins; type: functional, organism-based; set-up: dose 20 mg/kg
Mus musculus [13] = assay: Antipsychotic activity in albino lyka mouse assessed as reversal of apomorphine-induced stereotype response at 20 mg/kg, ip administered 10 mins prior to apomorphine challenge measured after 10 to 30 mins; type: functional, organism-based; set-up: dose 20 mg/kg

SMILES: Cc1nc2n(c(=O)c1CCN1CCC(c3noc4cc(F)ccc34)CC1)CCCC2 [RISPERIDONE]
- logP [1]: 2.1

SMILES: Clc1ccc(CN2CCN(CCCOc3cccc4cccnc34)CC2)cc1
- Activity (Mus musculus [4]): inactive
- logP [1]: 4.14
- Activity (Mus musculus [5]): Active

SMILES: c1ccc(CN2CCN(CCCOc3cccc4cccnc34)CC2)cc1
- Activity (Mus musculus [6]): Active
- Activity (Mus musculus [7]): inactive
- logP [1]: 3.58

SMILES: Clc1ccc(CN2CCN(CCCOc3ccc4ncccc4c3)CC2)cc1
- Activity (Mus musculus [2]): inactive
- logP [1]: 4.14
- Activity (Mus musculus [3]): inactive

SMILES: CN1CCN(C2=Nc3cc(Cl)ccc3Nc3ccccc32)CC1 [CLOZAPINE]
- logP [1]: 3.71

SMILES: O=C(c1ccccc1)N1CCN(CCCOc2ccc3ncccc3c2)CC1
- Activity (Mus musculus [8]): Active
- logP [1]: 3.02
- Activity (Mus musculus [9]): inactive

SMILES: c1ccc(CN2CCN(CCCOc3ccc4ncccc4c3)CC2)cc1
- Activity (Mus musculus [8]): inactive
- logP [1]: 3.58
- Activity (Mus musculus [9]): inactive

Second part, led by results:

- logP [1]: 3.58
SMILES: O=C(c1ccc(Cl)cc1)N1CCN(CCCOc2cccc3cccnc23)CC1
- Activity (Mus musculus [2]): inactive
- Activity (Mus musculus [3]): Active

- logP [1]: 2.37
SMILES: O=C(c1ccc(F)cc1)C1CCN(CCn2c(=O)[nH]c3ccccc3c2=O)CC1 [KETANSERIN]

- logP [1]: 4.67
SMILES: O=C1Cc2cc(CCN3CCN(c4nsc5ccccc45)CC3)c(Cl)cc2N1 [ZIPRASIDONE]

- logP [1]: 3.58
SMILES: O=C(c1ccc(Cl)cc1)N1CCN(CCCOc2ccc3ncccc3c2)CC1
- Activity (Mus musculus [10]): Active
- Activity (Mus musculus [11]): inactive

- logP [1]: 3.02
SMILES: O=C(c1ccccc1)N1CCN(CCCOc2cccc3cccnc23)CC1
- Activity (Mus musculus [12]): inactive
- Activity (Mus musculus [13]): Active

Reference: ChEMBL document CHEMBL1158410, “Synthesis and evaluation of 1-(quinoliloxypropyl)-4-aryl piperazines for atypical antipsychotic effect” (Bioorg Med Chem Lett, 2009)
